Experimental data taken from ChEMBL document CHEMBL4725416, “Structure-Based Discovery of Novel Ligands for the Orexin 2 Receptor” (J Med Chem, 2020).
The source made the active and inactive calls. Unless noted, the calls are words filed in the database; no cut-off is given here.

Tests used:
[1] = molecular target: T1, Orexin receptor type 2 (Homo sapiens) (UniProt O43614); test: Agonist activity at human orexin 2 receptor expressed in CHO cells assessed as increase in calcium mobilization incubated for 120 secs by Fluo-4AM dye based fluorescence assay; format: functional, cell-based; details: time 120.0 sec
T1 sequence (whole entry): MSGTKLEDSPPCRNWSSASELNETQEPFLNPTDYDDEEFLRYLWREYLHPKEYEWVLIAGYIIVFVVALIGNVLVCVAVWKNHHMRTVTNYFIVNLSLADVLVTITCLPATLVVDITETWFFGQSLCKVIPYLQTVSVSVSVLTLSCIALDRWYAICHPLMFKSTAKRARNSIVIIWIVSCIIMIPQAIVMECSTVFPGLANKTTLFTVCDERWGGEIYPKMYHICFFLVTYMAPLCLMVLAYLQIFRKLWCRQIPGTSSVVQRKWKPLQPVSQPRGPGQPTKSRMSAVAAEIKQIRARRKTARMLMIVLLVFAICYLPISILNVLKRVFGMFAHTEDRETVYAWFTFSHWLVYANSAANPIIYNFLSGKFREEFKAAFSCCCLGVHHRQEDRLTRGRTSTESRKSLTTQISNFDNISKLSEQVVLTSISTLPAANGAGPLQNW

[2] = molecular target: T2, Orexin/Hypocretin receptor type 1 (Homo sapiens, UniProt O43613); test: (§1) Displacement of [3H]-[…] from human orexin 1 receptor expressed in CHO cells incubated for 2 hrs by whole cell radioligand binding assay; format: cell-based
T2 sequence (O43613 whole entry): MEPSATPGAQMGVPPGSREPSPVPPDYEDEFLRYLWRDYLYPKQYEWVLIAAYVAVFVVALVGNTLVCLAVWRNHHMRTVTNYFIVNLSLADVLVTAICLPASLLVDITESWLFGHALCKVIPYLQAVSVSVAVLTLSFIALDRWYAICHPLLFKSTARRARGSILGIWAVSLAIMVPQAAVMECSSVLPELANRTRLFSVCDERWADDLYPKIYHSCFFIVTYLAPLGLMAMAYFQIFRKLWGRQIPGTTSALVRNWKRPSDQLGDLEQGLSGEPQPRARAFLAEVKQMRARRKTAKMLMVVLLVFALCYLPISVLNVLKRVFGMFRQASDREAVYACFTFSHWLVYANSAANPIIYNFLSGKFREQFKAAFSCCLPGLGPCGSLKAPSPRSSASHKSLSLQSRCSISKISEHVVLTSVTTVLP

[3] = (§2) Displacement of [3H]-EMPA from human orexin 2 receptor expressed in CHO cells incubated for 2 hrs by whole cell radioligand binding assay; format: cell-based
[4] = species: Homo sapiens; test: Displacement of [3H]-EMPA from human orexin 2 receptor expressed in CHO cells incubated for 2 hrs by whole cell radioligand binding assay relative to control; format: cell-based; parameters: concentration or dose not given beside the values; details: dose or concentration not given here
[5] = molecular target: T3, Orexin/Hypocretin receptor type 1 (Homo sapiens) (UniProt O43613); details: CHO, time 120.0 sec
T3 sequence (whole entry): T2 sequence (O43613 whole entry)
Description: Agonist activity at human orexin 1 receptor expressed in CHO cells assessed as increase in calcium mobilization incubated for 120 secs by Fluo-4AM dye based fluorescence assay

[6] = species: Homo sapiens; test: as §2; format: cell-based
[7] = molecular target: T3, Orexin/Hypocretin receptor type 1 (Homo sapiens); test: as §1; format: cell-based

Structure (SMILES): COc1ccc([C@H]2CCCN2C(=O)c2ccc(OCc3cn4ccccc4n3)cc2)c(OC)c1
- pEC50 [1]: inactive
- Ki [2]: 20.9 µM

Structure (SMILES): Cc1nc2cc(F)cc(C(=O)NCCOc3ccc4ccccc4c3)c2nc1C
- pKi [3]: 5.83
- inhibition [4]: 61.7%

Structure (SMILES): Cc1ccccc1OC[C@@H]1CCCN(C(=O)CCc2nc(-c3ccccn3)no2)C1
- pEC50 [1]: inactive
- Ki [2]: 15.1 µM

Structure (SMILES): Cc1ccccc1CN(C)C(=O)Cc1csc(-c2cccc(F)c2)n1
- pEC50 [5]: inactive
- pKi [3]: 6.18
- pEC50 [1]: inactive
- Ki [2]: 3.24 µM

Structure (SMILES): Cc1ccc(C(=O)[C@H](C)Oc2cccc(N3C(=O)[C@H]4[C@H](C)C=CC[C@@H]4C3=O)c2)cc1
- pKi [3]: 4.97
- inhibition [4]: 49.9%
- Ki [2]: 7.76 µM

Structure (SMILES): O=C1NC(=O)C(=Cc2c(OCc3ccccc3F)ccc3ccccc23)C(=O)N1
- pEC50 [1]: inactive

Structure (SMILES): O=C(c1ccccc1Cc1ccccc1)N1CCN(Cc2csc(-c3ccco3)n2)CC1
- pEC50 [1]: inactive
- Ki [2]: 14.8 µM

Structure (SMILES): Cc1ccc(Oc2ncccc2NC(=O)c2ccc3c(c2)OCCCO3)c2c1CCC2
- pKi [3]: 5.19
- inhibition [4]: 67.1%
- Ki [2]: 5.13 µM

Structure (SMILES): O=C(Nc1cccc(/C=C/c2ccccn2)c1)c1occc1COc1ccccc1
- pKi [3]: 4.98
- inhibition [4]: 39.9%
- Ki [2]: 7.94 µM

Structure (SMILES): C[C@@H](Oc1ccc2c(c1)oc(=O)c1ccccc12)C(=O)c1ccccc1
- pEC50 [5]: inactive
- pKi [3]: 5.27
- pEC50 [1]: inactive
- inhibition [4]: 63.7%
- Ki [2]: 5.37 µM

Structure (SMILES): O=C(C1=NN([C@H]2CCS(=O)(=O)C2)C(=O)CC1)N(CCc1ccccc1)c1nc2ccccc2s1
- pEC50 [1]: inactive
- IC50 [2]: > 100 µM

Structure (SMILES): O=C(c1sc2cccc(F)c2c1Cl)N1CCN(Cc2ccco2)CC1
- pEC50 [1]: inactive

Structure (SMILES): Cc1ccc2[nH]c(C)c(CC(=O)N(Cc3cccnc3)C3CC3)c2c1
- pEC50 [5]: inactive
- pEC50 [1]: inactive

Structure (SMILES): O=C(c1ccc(-c2nc3ccccc3s2)o1)N(Cc1ccco1)Cc1ccco1
- pEC50 [5]: inactive
- pKi [3]: 5.5
- pEC50 [1]: inactive
- Ki [2]: 3.55 µM

Structure (SMILES): Cc1ccc(-c2nc(CC(=O)N(C)Cc3c(F)cccc3Cl)cs2)o1
- pEC50 [5]: inactive
- pKi [3]: 5.55
- pEC50 [1]: inactive
- Ki [2]: 11.7 µM

Structure (SMILES): Cc1ccc(-c2nc(CC(=O)N(C)[C@@H](C)c3ccc(F)cc3)cs2)o1
- pEC50 [5]: inactive
- pKi [3]: 5.53
- pEC50 [1]: inactive
- Ki [2]: 17 µM

Structure (SMILES): Cc1ccc(CSCc2ccc(-c3nc(-c4ccccn4)no3)o2)cc1
- pKi [3]: 5.07
- pEC50 [1]: inactive
- inhibition [4]: 79.2%
- Ki [2]: 15.5 µM

Structure (SMILES): Cc1ccc(N2CCCN(C(=O)c3cn(C)c4ccccc34)CC2)nn1
- pEC50 [1]: inactive
- IC50 [2]: > 100 µM

Structure (SMILES): O=C(COc1ccc(-c2ccccc2)cc1)c1ccc(O)cc1O
- pKi [6]: inactive
- pEC50 [1]: inactive
- pKi [7]: inactive

Structure (SMILES): Cc1[nH]c2ccccc2c1[C@@H]1c2ccccc2C(=O)N1CCC(=O)N1CCN(c2ccccn2)CC1
- pEC50 [1]: inactive
- IC50 [2]: > 100 µM

Structure (SMILES): C[C@H](Sc1nc(-c2ccco2)nc2ccccc12)C(=O)N1CCc2ccccc2C1
- pEC50 [5]: inactive
- pKi [3]: 5.5
- pEC50 [1]: inactive
- Ki [2]: 8.91 µM
